Like-named read-outs stand apart in the source and are kept apart here.
Legend:
zebrafish larvae = assay: Zebrafish larvae exposure, metabolite identification by LC-HRMS/MS; conditions: larvae 4 dpf, 24 h, larvae extract, one replicate of n = 3, n.d. = not detected; for Absolute peak area, Zebrafish larvae [25 μM]: 25 μM 4F-MDMB-BINACA in medium; for Absolute peak area, Zebrafish larvae [100 µM]: 100 µM parent NPS in medium
HepaRG cells = assay: Incubations with HepaRG cells, metabolite identification by LC-HRMS/MS; format: in vitro ADME, human; conditions: 24 h, cell culture medium, one replicate of n = 3, n.d. = not detected; for Absolute peak area, HepaRG [25 μM]: 25 μM parent NPS; for Absolute peak area, HepaRG [250 μM]: 250 μM parent NPS
[1] = n = 2, according to literature, cited from earlier work
[2] = ephylone and metabolites, ref Wagmann et al., 2019a
[3] = 1P-LSD and metabolites, ref Wagmann et al., 2019b
[4] = 3,4-DMA-NBOMe and metabolites, ref Caspar et al., 2018
[5] = 4F-PHP and metabolites, ref Wagmann et al., 2019a

Structure (SMILES) | Absolute peak area, HepaRG [25 μM] (HepaRG cells) | Absolute peak area, HepaRG [250 μM] (HepaRG cells) | Absolute peak area, Zebrafish larvae [100 µM] (zebrafish larvae) | further results
CC1(C)COC(=O)[C@H]1NC(=O)c1n[nH]c2ccccc12 [MB2] | – | – | – | Absolute peak area, Zebrafish larvae [25 μM] (zebrafish larvae): 5.13E+05
CC(C)(C)[C@H](NC(=O)c1nn(CCCC(=O)O)c2ccccc12)C(=O)O [MB10] | 1.68E+05 | 8.32E+05 | – | Absolute peak area, Zebrafish larvae [25 μM] (zebrafish larvae): 5.72E+04
CC1(CO)COC(=O)[C@H]1NC(=O)c1nn(CCCCF)c2ccccc12 (stereo partly shown) [MB12] | – | – | – | Absolute peak area, Zebrafish larvae [25 μM] (zebrafish larvae): 1.68E+06
CC(C)(C)[C@H](NC(=O)c1nn(CCCCF)c2ccccc12)C(=O)O[C@@H]1O[C@H](C(=O)O)[C@@H](O)[C@H](O)[C@H]1O [MB22] | 2.56E+07 | 3.25E+07 | – | –
COC(=O)C(NC(=O)c1nn(CCCC(=O)OC2OC(C(=O)O)C(O)C(O)C2O)c2ccccc12)C(C)(C)C (stereo not shown) [MB24] | – | – | – | Absolute peak area, Zebrafish larvae [25 μM] (zebrafish larvae): 2.34E+05
COC(=O)C(NC(=O)c1nn(CCCCF)c2ccccc12)C(C)(C)COC1OC(C(=O)O)C(O)C(O)C1O (stereo not shown) [MB25] | – | – | – | Absolute peak area, Zebrafish larvae [25 μM] (zebrafish larvae): 1.75E+07
CCCC(NCC)C(O)c1ccc2c(c1)OCO2 (stereo not shown) [ME5] | – | – | 7.64E+06 | Detection in pHLS9 [25 µM] [1, 2]: +
CCCC(C(=O)c1ccc2c(c1)OCO2)N(O)CC (stereo not shown) [ME7] | – | 1.75E+06 | 1.10E+06 | Detection in pHLS9 [25 µM] [1, 2]: +
CN1C[C@H](C(N)=O)C=C2c3cccc4[nH]cc(c34)C[C@H]21 [ML1] | – | 1.93E+06 | – | –
CN1C[C@H](C(=O)O)C=C2c3cccc4[nH]cc(c34)C[C@H]21 [ML2] | 5.16E+06 | 1.39E+07 | 3.63E+05 | –
CCNC(=O)[C@@H]1C=C2c3cccc4[nH]cc(c34)C[C@H]2NC1 [ML3] | 3.89E+05 | 2.20E+06 | 3.30E+05 | –
CCNC(=O)[C@@H]1C=C2c3cccc4[nH]cc(c34)C[C@H]2N(C)C1 [ML4] | 3.19E+07 | 2.58E+08 | 6.17E+07 | Detection in pHLS9 [25 µM] [1, 3]: +
CCN(CC)C(=O)[C@@H]1C=C2c3cccc4[nH]cc(c34)C[C@H]2NC1 [ML5] | 1.75E+07 | 3.37E+07 | 1.07E+07 | Detection in pHLS9 [25 µM] [1, 3]: +
CCC(=O)n1cc2c3c(cccc31)C1=C[C@@H](C(=O)O)CN(C)[C@@H]1C2 [ML8] | – | – | 1.07E+06 | –
CCN(CC)C(=O)C1C=C2c3cccc4[nH]cc(c34)C(O)C2NC1 (stereo not shown) [ML10] | – | – | 6.10E+04 | –
CCNC(=O)[C@@H]1C=C2c3cccc4c3c(cn4C(=O)CC)C[C@H]2NC1 [ML12] | – | – | 4.11E+05 | –
CCN(CCO)C(=O)C1C=C2c3cccc4[nH]cc(c34)CC2N(C)C1 (stereo not shown) [ML14] | 4.01E+05 | 4.63E+06 | 3.90E+06 | –
CCNC(=O)[C@@H]1C=C2c3cccc4c3c(cn4C(=O)CC)C[C@H]2N(C)C1 [ML17] | – | – | 1.48E+08 | Detection in pHLS9 [25 µM] [1, 3]: +
CCN(CC)C(=O)[C@@H]1C=C2c3cccc4c3C(O)(C[C@H]2N(C)C1)C(=O)N4 (stereo partly shown) [ML18, 2−oxo−3−hydroxy LSD] | 7.00E+06 | 3.67E+06 | 6.93E+06 | Detection in pHLS9 [25 µM] [1, 3]: +

Structure (SMILES) | Absolute peak area, HepaRG [25 μM] (HepaRG cells) | Absolute peak area, HepaRG [250 μM] (HepaRG cells) | Absolute peak area, Zebrafish larvae [100 µM] (zebrafish larvae) | further results
CCC(=O)n1cc2c3c(cccc31)C1=C[C@@H](C(=O)N(CC)CC)CN[C@@H]1C2 [ML20] | 3.19E+04 | 3.74E+06 | 3.77E+07 | Detection in pHLS9 [25 µM] [1, 3]: +
CCC(=O)n1cc2c3c(cccc31)C1=C[C@@H](C(=O)N(CC)CCO)CN(C)[C@@H]1C2 [ML23] | – | – | 3.31E+07 | –
CCC(=O)n1cc2c3c(cccc31)C1=C[C@@H](C(=O)N(CC)CC)CN(C)[C@@H]1C2O (stereo partly shown) [ML24] | – | – | 3.37E+07 | –
CCN(CCOC1OC(C(=O)O)C(O)C(O)C1O)C(=O)C1C=C2c3cccc4[nH]cc(c34)CC2N(C)C1 (stereo not shown) [ML28] | – | 1.07E+05 | – | –
COc1ccc(CC(C)N)cc1OC (stereo not shown) [MN1] | 4.04E+07 | 9.84E+07 | 3.29E+07 | Detection in pHLS9 [25 µM] [1, 4]: +
COc1ccccc1CNC(C)Cc1ccc(O)c(O)c1 (stereo not shown) [MN2] | – | – | – | Detection in pHLS9 [25 µM] [1, 4]: +
COc1ccc(CC(C)NCc2ccccc2O)cc1OC (stereo not shown) [MN7] | 1.19E+07 | 1.17E+08 | 1.19E+08 | Detection in pHLS9 [25 µM] [1, 4]: +
COc1ccc(CC(C)N(O)Cc2ccccc2O)cc1OC (stereo not shown) [MN9] | – | – | 3.57E+05 | –
COc1ccccc1CN(O)C(C)Cc1ccc(OC)c(OC)c1 (stereo not shown) [MN12] | – | 4.60E+05 | 8.81E+06 | –
COc1ccc(CC(C)NCc2ccccc2O[C@@H]2O[C@H](C(=O)O)[C@@H](O)[C@H](O)[C@H]2O)cc1OC (stereo partly shown) [MN22] | – | – | – | Detection in pHLS9 [25 µM] [1, 4]: +
CCCCC(N)C(=O)c1ccc(F)cc1 (stereo not shown) [MP1] | 1.48E+05 | 1.82E+06 | 4.83E+05 | Detection in pHLS9 [25 µM] [1, 5]: +
CCCCC(C(O)c1ccc(F)cc1)N1CCCC1 (stereo not shown) [MP2] | 1.18E+07 | 6.41E+07 | 2.98E+07 | Detection in pHLS9 [25 µM] [1, 5]: +
CCCCC(C(=O)c1ccc(F)cc1)N1CCC(=O)C1 (stereo not shown) [MP3] | – | – | 7.58E+04 | –
CCCCC(C(=O)c1ccc(F)cc1)N1CCCC1=O (stereo not shown) [MP4] | – | – | 8.64E+05 | Detection in pHLS9 [25 µM] [1, 5]: +
CC(O)CCC(C(=O)c1ccc(F)cc1)N1CCCC1 (stereo not shown) [MP5] | 1.14E+06 | 1.07E+07 | 7.71E+06 | Detection in pHLS9 [25 µM] [1, 5]: +
CCCCC(C(=O)c1ccc(F)cc1)[N+]1([O-])CCCC1 (stereo not shown) [MP8] | – | 1.47E+05 | 2.50E+06 | –
CC(O)CCC(C(O)c1ccc(F)cc1)N1CCCC1 (stereo not shown) [MP9] | 8.15E+05 | 6.48E+06 | 3.78E+07 | –
CCCCC(C(O[C@@H]1O[C@H](C(=O)O)[C@@H](O)[C@H](O)[C@H]1O)c1ccc(F)cc1)N1CCCC1 (stereo partly shown) [MP10] | – | 2.91E+04 | – | Detection in pHLS9 [25 µM] [1, 5]: +
CC(CCC(C(=O)c1ccc(F)cc1)N1CCCC1)OC1OC(C(=O)O)C(O)C(O)C1O (stereo not shown) [MP11] | – | – | 1.15E+06 | Detection in pHLS9 [25 µM] [1, 5]: +
